Reference: patent US6730659B2, “Antimicrobial peptides and methods of use thereof” (The Board of Regents of the University of Oklahoma, priority 1999, dated 2004)
“Also recorded” adds a separate entry of the source. Where two headings read alike, the source gives them in different places. Positions of bridges follow the written chain, without caps; N, C: chain ends. Residues, ends and D or L forms follow the SMILES beside them. No end group written: not given here. *: point of attachment. Acm = CC(=O)NC*

Legend:
[1] = type: physicochemical
From the text: In addition to the Increased potency of peptide 20-44ser42 and 20-44ser26, these two peptides have technical advantages over the parent peptide 20-44. The two new analogs are easier to synthesize and purify because the internal disulfide bonding between the two cysteine residues can no longer occur.

S. typhimurium SH9178 = assay: in vitro bactericidal activity, S. typhimurium SH9178; type: cell-based, Salmonella typhimurium
Description: (§1) Methods used herein are those previously described in U.S. Pat. Nos. 5,607,916; 5,627,262; and 5,650,392.
(§2) Peptides 20-44, 20-44ser26 and 20-44ser42, were assayed for bactericidal activity using S. typhimurium SH9178 as the test organism. […] Peptide 20-44ser42 killed 97.8% of bacteria at 75 μM, and peptide 20-44ser26 killed 99.6% of bacteria at 75 μM. Importantly, at concentrations of only 12.5 μM, peptide 20-44ser26 killed 70.4% of organisms and peptide 20-44ser42 killed 66.6% of bacteria. We tested these peptides with the smooth, more virulent LT2 strain of S. typhimurium, (FIG. 3). […] Indeed, the two serine analogs, 20-44ser26 and 20-44ser42 were able to kill 73% and 65% of bacteria at 12.5 μM, the lowest concentration of peptide tested. These levels of mortality were very much greater than those obtained using peptide 20-44. Two other organisms, Staphylococcus aureus ATCC strain 25923 and Enterococcus faecalis (a clinical isolate), both of which are gram-positive organisms, were also tested against 20-44ser26 and 20-44ser42.

[2] = tested on: LT2 strain of S. typhimurium; type: cell-based; details: 12.5 μM, lowest concentration tested, FIG. 3
Description: as §1, §2

[3] = U.S. Pat. Nos. 5,607,916 and 5,458,874; cited from earlier work
S. typhimurium LT2 = assay: survival of mice inoculated with live Salmonella typhimurium LT2; type: in vivo, mice (female, Balb/c); details: for rescue from lethal infection in words: oral and intraperitoneal routes; for survival rate: 100 μg
Description: Mice (female, Balb/c, 6-8 weeks) were administered a dose of live S. typhimurium LT2 (8×10^8/mouse) via the oral route. Without treatment, this dose of live organisms led to the death of all animals between day 3 and 4 (i.e. LD100 at day 3 or 4). Following challenge with Salmonella, peptide 20-44 (0-150 μg/mouse) was administered via the intravenous; oral, and intraperitoneal routes. […] At day 6 post infection, 100% of animals given a dose of 125 μg of peptide 20-44 intravenously survived. 80% of mice given 50, 100 and 150 μg of peptide survived through to day 5. Data shown in FIG. 10 strongly indicate that peptide 20-44 may also be given via the oral route since 80% survival rates were obtained with 100 μg of peptide. This is evidence that the peptide is not destroyed by the acid environment and enzymes of the stomach and indicates an alternative route of administration to the intravenous route discussed in FIG. 9. The third route of administration of peptide 20-44 was the intraperitoneal route. This is often the method of choice in a veterinary situation.

[4] = cited from earlier work
Salmonella typhimurium = details: cited from earlier work
Staphylococcus aureus = details: cited from earlier work
Enterococcus faecalis = details: cited from earlier work
Pseudomonas aeruginosa = details: cited from earlier work
Escherichia coli = details: cited from earlier work
[5] = intravenous infusion 3.0 mg/kg with E. coli LPS 250 μg/kg over 30 min; cited from earlier work
[6] = LPS binding in the in vitro limulus amebocyte lysate (LAL) assay; details: FIGS. 6-7
Description: We tested the ability of the peptide analogs of the present invention to bind LPS in the in vitro limulus amebocyte lysate (LAL) assay and compared them with the parent peptide, 20-44. […] Similarly, peptide 20-44ser42 was also capable of neutralizing the effect of monophosphoryl lipid A at concentrations greater than 500 μg/ml (FIG. 7).

[7] = 75 μM (200 μg/ml), highest concentration tested, FIG. 2

NQGRHFSGGALIHARFVMTAASCFQ [Peptide 20-44ser26]
solubility compared with the 20-44 peptide [1]: greater than the 20-44 peptide | bacteria killed (S. typhimurium SH9178; 12.5 μM): 70.4% | bacteria killed (S. typhimurium SH9178; [7]): 99.6% | bacteria killed [2]: 73%

20-44ACM: sequence of 20-44 with both cysteines permanently protected with an ACM (boc-cys-acetamidomethyl) side group; control peptide (NQGRHFC(Acm)GGALIHARFVMTAASC(Acm)FQ; listed as Homo Sapiens) [Peptide 20-44ACM]
antibiotic / antimicrobial activity in words [3]: ineffective antibiotics | rescue from lethal infection in words (S. typhimurium LT2; intravenous): succumbed to infection very rapidly; also recorded: no activity

NQGRHFCGGALIHARFVMTAASSFQ [Peptide 20-44ser42]
solubility compared with the 20-44 peptide [1]: greater than the 20-44 peptide | bacteria killed (S. typhimurium SH9178; 12.5 μM): 66.6% | bacteria killed (S. typhimurium SH9178; [7]): 97.8% | bacteria killed [2]: 65%

20-44ser26/42: homologous to peptide 20-44, serines substituted for cysteines at positions 26 and 42 (NQGRHFSGGALIHARFVMTAASSFQ; listed as Homo Sapiens)
antibiotic / antimicrobial activity in words [3]: ineffective antibiotics

CC[C@H](C)[C@@H]1NC(=O)[C@H](CC(C)C)NC(=O)[C@H](C)NC(=O)CNC(=O)CNC(=O)[C@@H](NC(=O)[C@H](Cc2ccccc2)NC(=O)[C@H](Cc2c[nH]cn2)NC(=O)[C@H](CCCNC(=N)N)NC(=O)CNC(=O)[C@H](CCC(N)=O)NC(=O)[C@@H](N)CC(N)=O)CSSC[C@@H](C(=O)N[C@@H](Cc2ccccc2)C(=O)N[C@@H](CCC(N)=O)C(=O)O)NC(=O)[C@H](CO)NC(=O)[C@H](C)NC(=O)[C@H](C)NC(=O)[C@H]([C@@H](C)O)NC(=O)[C@H](CCSC)NC(=O)[C@H](C(C)C)NC(=O)[C@H](Cc2ccccc2)NC(=O)[C@H](CCCNC(=N)N)NC(=O)[C@H](C)NC(=O)[C@H](Cc2c[nH]cn2)NC1=O [Peptide 20-44] (H-NQGRHFCGGALIHARFVMTAASCFQ-OH; disulfide 7-23; N-terminus and C-terminus assumed)
7-day survival rate ([4]; 0.2 mg/kg intravenously after lethal dose of LPS): 30% | 7-day survival rate ([4]; 1.0 mg/kg intravenously after lethal dose of LPS): 50% | 7-day survival rate ([4]; 5.0 mg/kg intravenously after lethal dose of LPS): 80% | endotoxin-induced increase in circulating TNFα ([4]; 5.0 mg/kg, sensitized rats): significantly inhibited | in vitro bactericidal activity in words (Salmonella typhimurium): strong in vitro bactericidal activity | activity in words (Staphylococcus aureus): active | activity in words (Enterococcus faecalis): active | in vitro bactericidal activity in words (Pseudomonas aeruginosa): strong in vitro bactericidal activity | bactericidal activity in words (S. typhimurium SH9178; FIG. 2): significant antibiotic activity | in vitro bactericidal activity in words (Escherichia coli): strong in vitro bactericidal activity | effect on LPS-induced circulatory shock in words [5]: prevented LPS-induced hyperdynamic and hypodynamic circulatory shock | binding of LPS / monophosphoryl lipid A in words [6]: bound LPS | mice survived (S. typhimurium LT2; 50, 100 and 150 μg (intravenous by context, FIG. 9), through to day 5): 80% | survival rate (S. typhimurium LT2; intraperitoneal, day 5 post infection, FIG. 11): 80% | survival rate (S. typhimurium LT2; intraperitoneal, day 6 post infection, FIG. 11): 60% | animals survived (S. typhimurium LT2; intravenous, 125 μg, day 6 post infection, FIG. 9): 100% | rescue from lethal infection in words (S. typhimurium LT2; intravenous): can rescue animals from lethal infection | survival rate (S. typhimurium LT2; oral, FIG. 10): 80%
